Results taken from ChEMBL document CHEMBL1131557 (Bioorg Med Chem Lett, 1998).

Columns and labels:
Histamine H3 receptor = Histamine H3 receptor (Cavia porcellus, UniProt Q9JI35); experiment: Inhibition of [3H]N-alpha-methylhistamine binding to guinea pig brain Histamine H3 receptor
Histamine H1 receptor = Histamine H1 receptor (Cavia porcellus, UniProt P31389); experiment: Binding affinity to H-1 receptor was determined in guinea pig brain tissue using [3H]- […] ligand
[1] = molecular target: Histamine H3 receptor (Cavia porcellus) (UniProt Q9JI35); conditions: Ileum
Description: (§1) In vitro effective concentration for H-3-mediated contraction of guinea pig ileum

[2] = molecular target: Histamine H1 receptor (Cavia porcellus) (UniProt P31389); conditions: Ileum
Description: In vitro effective concentration for H-1-mediated contraction of guinea pig ileum

[3] = molecular target: Histamine H1 receptor (Cavia porcellus) (UniProt P31389); experiment: H1-mediated bronchoconstrictor effect after intravenous administration in anesthetized guinea pig; assay type: functional, organism-based; conditions: Lung
[4] = molecular target: Histamine H1 receptor (Cavia porcellus) (UniProt P31389); conditions: Ileum; remark: listed apart in the source
Description: In vitro effective concentration for H1-mediated contraction of guinea pig ileum

[5] = molecular target: Histamine H3 receptor (Cavia porcellus) (UniProt Q9JI35); conditions: Ileum; remark: listed apart in the source
Description: as §1

Sequence of Histamine H1 receptor (Cavia porcellus) (P31389 whole entry): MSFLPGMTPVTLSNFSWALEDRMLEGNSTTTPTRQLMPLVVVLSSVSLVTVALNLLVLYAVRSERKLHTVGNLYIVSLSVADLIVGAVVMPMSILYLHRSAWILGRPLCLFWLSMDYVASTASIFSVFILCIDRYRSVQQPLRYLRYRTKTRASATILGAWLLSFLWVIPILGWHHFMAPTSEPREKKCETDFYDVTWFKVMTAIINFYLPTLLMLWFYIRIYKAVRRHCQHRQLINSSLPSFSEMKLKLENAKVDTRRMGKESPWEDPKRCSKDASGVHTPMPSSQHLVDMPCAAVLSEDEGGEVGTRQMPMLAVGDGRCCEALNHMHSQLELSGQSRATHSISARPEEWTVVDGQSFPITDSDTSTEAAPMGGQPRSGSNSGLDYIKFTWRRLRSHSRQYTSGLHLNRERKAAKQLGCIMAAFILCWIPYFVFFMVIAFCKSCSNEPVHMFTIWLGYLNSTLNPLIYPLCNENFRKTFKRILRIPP
Sequence of Histamine H3 receptor (Q9JI35 whole entry): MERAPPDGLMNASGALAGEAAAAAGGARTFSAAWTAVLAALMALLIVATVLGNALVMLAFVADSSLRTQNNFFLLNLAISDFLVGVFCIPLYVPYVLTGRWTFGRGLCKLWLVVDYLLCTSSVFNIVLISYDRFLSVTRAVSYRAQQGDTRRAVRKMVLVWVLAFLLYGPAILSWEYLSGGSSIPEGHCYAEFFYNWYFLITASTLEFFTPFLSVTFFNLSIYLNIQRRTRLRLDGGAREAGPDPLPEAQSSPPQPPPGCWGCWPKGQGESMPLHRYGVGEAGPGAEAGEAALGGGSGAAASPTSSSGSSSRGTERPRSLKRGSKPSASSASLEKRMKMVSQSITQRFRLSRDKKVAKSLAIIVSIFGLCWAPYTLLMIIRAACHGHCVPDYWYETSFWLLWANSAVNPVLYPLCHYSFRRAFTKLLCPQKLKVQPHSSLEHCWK
Sequence of Histamine H1 receptor (P31389 whole entry): as the sequence (P31389 whole entry) above
Sequence of Histamine H3 receptor (Cavia porcellus) (Q9JI35 whole entry): as the sequence (Q9JI35 whole entry) above

| SMILES | Ki (Histamine H3 receptor) [nM] | also measured |
| --- | --- | --- |
| C[C@H]1NCCC[C@@H]1c1cnc[nH]1 | > 2000 |  |
| C[C@H]1CNC[C@@H]1c1c[nH]cn1 | 2.3 | Ki (Histamine H1 receptor): > 10000 nM; pD2 [1]: 7.5; pD2 [2]: < 4 |
| CC[C@H]1NCC[C@@H]1c1cnc[nH]1 | 150 |  |
| C[C@H]1NC[C@@H]1c1c[nH]cn1 | 7 | ED50 [3]: > 0.3 mg/kg |
| C[C@H]1C[C@H](c2cnc[nH]2)CN1 | 76 |  |
| C[C@@H]1CNC[C@H]1c1cnc[nH]1 | 5 |  |
| c1nc(C2CCNC2)c[nH]1 (stereo not given) | 2 | ED50 [3]: 0.3 mg/kg |
| C[C@H]1NCC[C@@H]1c1c[nH]cn1 | 3 |  |
| c1ccc(C[C@H]2NCC[C@@H]2c2c[nH]cn2)cc1 | > 2000 |  |
| C[C@H]1CNC[C@H]1c1c[nH]cn1 | 3 |  |
| C[C@@H](N)Cc1c[nH]cn1 |  | pD2 [4]: 5.4; Ki (Histamine H1 receptor): > 10000 nM; pD2 [5]: 8.2 |
| C[C@@H]1NCC[C@@H]1c1c[nH]cn1 | 59 |  |
| C[C@]1(c2c[nH]cn2)CCNC1 | 170 |  |
